Laboratory results as given in patent US5556941A, “Glycopeptide derivatives, a process for their preparation and pharmaceutical agents containing these compounds” (Behringwerke Aktiengesellschaft, priority 1992, dated 1996).

Experiments:
human thrombin = molecular target: T1, human thrombin (Homo sapiens, UniProt P00734); assay: Determination of the inhibition constants (Ki) for thrombin, chromogenic substrate S-2238; format: biochemical; details: 100 pM human thrombin, pH 7.8, 37° C., 10 minutes preincubation, tight-binding evaluation
T1 construct: By proteolysis the proenzyme prothrombin is converted into thrombin
Method: The inhibition constants (Ki) of the compounds of the formula I were determined in established enzyme-kinetic procedures. […] Inhibitor and enzyme were preincubated for 10 minutes, and the reaction was started by addition of the chromogenic substrate S2238. For the evaluation of the kinetics, the mathematical algorithm for tight-binding was used, which gave Ki values and the inhibition type with the aid of non-linear regression.

[1] = molecular target: T2, trypsin from bovine pancreas (Bos taurus, UniProt P00760); assay: Determination of the specificity of the inhibitors: Ki of trypsin, substrate Chromozyme TRY; format: biochemical; details: for Ki: 0.5 nM bovine pancreas trypsin, pH 7.8, 37° C., 10 minute preincubation; for Specificity Try/Thr: ratio Ki trypsin / Ki thrombin
T2 construct: from tissue; host or cells: bovine pancreas
T2 sequence (P00760 24-246): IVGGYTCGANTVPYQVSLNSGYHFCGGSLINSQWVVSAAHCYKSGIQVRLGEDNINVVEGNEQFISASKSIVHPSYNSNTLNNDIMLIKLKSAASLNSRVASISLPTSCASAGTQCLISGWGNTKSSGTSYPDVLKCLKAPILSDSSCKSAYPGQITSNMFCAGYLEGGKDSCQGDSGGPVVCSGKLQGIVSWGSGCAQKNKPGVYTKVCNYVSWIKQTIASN
Method: The specificity of the inhibitors towards thrombin and trypsin was determined. The Ki of trypsin was determined in an analogous manner to the determination of the Ki of thrombin. The reaction mixture was composed as follows--buffer: 200 mM triethanolamine, 20 mM CaCl2, pH 7.8; 37° C.; enzyme: 0.5 nM trypsin from bovine pancreas; substrate: 500 μM carbobenzoxy-L-valyl-glycyl-L-arginine-4-nitranilide (Chromozyme TRY, from Boehringer Mannheim). The enzymatic reaction was started after a 10 minute preincubation by addition of the substrate.

CD rats = assay: Determination of the acute toxicity; format: in vivo, rat; details: i.v., survival on day 1, Litchfield & Wilcoxon method
Method: To determine the acute toxicity, CD rats were injected i.v. on day 0 with different doses of the test substance dissolved in 0.5 mL of physiol. NaCl solution. Control groups received only 0.5 mL of physiol. NaCl solution. 2 rats were used per concentration of the test substance. The number of rats surviving on day 1 was determined and the LD5, LD50 and LD95 were calculated by the Litchfield & Wilcoxon method. […] The results are summarized in Table I. Pharmacological data and activities of some selected compounds: […]

thrombin = details: cited from earlier work

For COC(=O)C1OC(NC(=O)C[C@H](NS(=O)(=O)c2c(C)cc(OC)c(C)c2C)C(=O)N[C@H](Cc2ccc(C(=N)N)cc2)C(=O)N2CCCCC2)C(OC(C)=O)C(OC(C)=O)C1OC(C)=O.Cl (stereo partly drawn) [Compound 24, 2-N-(4-Methoxy-2,3,6-trimethyl-benzenesulfonyl)-4-N-[methyl (2,3,4-tri-O-acetyl-β-D-glucopyranosyl)uronate]-L-asparaginyl-4-amidino-D-phenylalanine-piperidide hydrochloride], which Ki (human thrombin) is on record?
Its Ki is 0.8 nM.

And the Ki [1]?
The Ki was 231 nM.

And the “Specificity Try/Thr” value [1]?
The value was 289.

What about the “LD50 (rat)” value (CD rats) of the same compound?
The value was 46 mg/kg.

With COc1cc(C)c(S(=O)(=O)N[C@@H](CC(=O)N[C@@H]2O[C@H](COC(C)=O)[C@@H](OC(C)=O)[C@H](OC(C)=O)[C@H]2OC(C)=O)C(=O)N[C@H](Cc2ccc(C(=N)N)cc2)C(=O)N2CCCCC2)c(C)c1C.Cl [Compound 25, 2-N-(4-Methoxy-2,3,6-trimethyl-benzenesulfonyl)-4-N-(2,3,4,6-tetra-O-acetyl-β-D-glucopyranosyl)-L-asparaginyl-4-amidino-D-phenylalanine-piperidide hydrochloride] as the compound, how does the Ki (human thrombin) read?
Its Ki is 2.4 nM.

What about the Ki [1] of the same compound?
The Ki was 283 nM.

And the “Specificity Try/Thr” value [1]?
The value was 118.

What about the “LD50 (rat)” value (CD rats) of the same compound?
Its value is 55 mg/kg.

For COc1cc(C)c(S(=O)(=O)N[C@@H](CC(=O)N[C@@H]2O[C@H](C(=O)O)[C@@H](O)[C@H](O)[C@H]2O)C(=O)N[C@H](Cc2ccc(C(=N)N)cc2)C(=O)N2CCCCC2)c(C)c1C.Cl [Compound 30, 2-N-(4-Methoxy-2,3,6-trimethyl-benzenesulfonyl)-4-N-[(β-D-glucopyranosyl)-uronic acid]-L-asparaginyl-4-amidino-D-phenylalanine-piperidide hydrochloride], which Ki (human thrombin) is on record?
The Ki was 0.085 nM.

And the Ki [1]?
The Ki was 349 nM.

What about the “Specificity Try/Thr” value [1] of the same compound?
The value was 4106.

What about the “LD50 (rat)” value (CD rats) of the same compound?
Its value is 51 mg/kg.

Which Ki (human thrombin) does the source give for COc1cc(C)c(S(=O)(=O)N[C@@H](CC(=O)N[C@@H]2O[C@H](CO)[C@@H](O)[C@H](O)[C@H]2O)C(=O)N[C@H](Cc2ccc(C(=N)N)cc2)C(=O)N2CCCCC2)c(C)c1C.Cl [Compound 31, 2-N-(4-Methoxy-2,3,6-trimethyl-benzenesulfonyl)-4-N-[(β-D-glucopyranosyl)-L-asparaginyl-4-amidino-D-phenylalanine-piperidide hydrochloride] here?
Its Ki is 0.075 nM.

What about the Ki [1] of the same compound?
Its Ki is 501 nM.

Which results are given for COc1cc(C)c(S(=O)(=O)N[C@@H](CC(=O)N[C@@H]2O[C@H](CO)[C@@H](O)[C@H](O)[C@H]2O)C(=O)N[C@H](Cc2ccc(C(=N)N)cc2)C(=O)N2CCCCC2)c(C)c1C.Cl [Compound 31]?
Specificity Try/Thr [1]: 6680; LD50 (rat) (CD rats): 45 mg/kg

For COc1cc(C)c(S(=O)(=O)N[C@@H](CC(=O)N[C@@H]2O[C@H](CO)[C@@H](O)[C@H](O)[C@H]2NC(C)=O)C(=O)N[C@H](Cc2ccc(C(=N)N)cc2)C(=O)N2CCCCC2)c(C)c1C.Cl [Compound 32, 2-N-(4-Methoxy-2,3,6-trimethyl-benzenesulfonyl)-4-N-(2-acetamido-2-deoxy-β-D-glucopyranosyl)-L-asparaginyl-4-amidino-D-phenylalanine-piperidide hydrochloride], which Ki (human thrombin) is on record?
Its Ki is 1.1 nM.

What about the Ki [1] of the same compound?
Its Ki is 528 nM.

And the “Specificity Try/Thr” value [1]?
The value was 480.

And the “LD50 (rat)” value (CD rats)?
The value was 53 mg/kg.

For COc1cc(C)c(S(=O)(=O)N[C@@H](CC(=O)N[C@@H]2O[C@H](CO)[C@H](O)[C@H](O)[C@H]2O)C(=O)N[C@H](Cc2ccc(C(=N)N)cc2)C(=O)N2CCCCC2)c(C)c1C.Cl [Compound 41, 2-N-(4-Methoxy-2,3,6-trimethyl-benzenesulfonyl)-4-N-(β-D-galactopyranosyl)-L-asparaginyl-4-amidino-D-phenylalanine-piperidide hydrochloride], which Ki (human thrombin) is on record?
The Ki was 0.04 nM.

What about the Ki [1] of the same compound?
Its Ki is 375 nM.

And the “Specificity Try/Thr” value [1]?
Its value is 9375.

And the “LD50 (rat)” value (CD rats)?
The value was 50 mg/kg.

What does the source list for COc1cc(C)c(S(=O)(=O)N[C@@H](CO[C@@H]2OC[C@@H](O)[C@@H](O)[C@H]2O)C(=O)N[C@H](Cc2ccc(C(=N)N)cc2)C(=O)N2CCCCC2)c(C)c1C.I [Compound 42, 2-N-(4-Methoxy-2,3,6-trimethyl-benzenesulfonyl)-3-O-(β-D-ribo-pyranosyl)-L-seryl-4-amidino-D-phenylalanine-piperidide hydroiodide]?
Ki (human thrombin): 1.3 nM; Ki [1]: 650 nM; Specificity Try/Thr [1]: 500; LD50 (rat) (CD rats): 60 mg/kg

With COc1cc(C)c(S(=O)(=O)N[C@@H](CC(=O)O)C(=O)N[C@H](Cc2ccc(C(=N)N)cc2)C(=O)N2CCCCC2)c(C)c1C.Cl [Compound 43, 2-N-(4-Methoxy-2,3,6-trimethyl-benzenesulfonyl)-L-Asp-4-amidino-D-phenylalanine-piperidide×HCl] as the compound, how does the Ki (human thrombin) read?
Its Ki is 1.5 nM.

And the Ki [1]?
The Ki was 187 nM.

And the “Specificity Try/Thr” value [1]?
Its value is 125.

And the “LD50 (rat)” value (CD rats)?
Its value is 62 mg/kg.

Which Ki (human thrombin) does the source give for COc1cc(C)c(S(=O)(=O)N[C@@H](CC(=O)N[C@H]2O[C@@H](C)[C@@H](O)[C@@H](O)[C@@H]2O)C(=O)N[C@H](Cc2ccc(C(=N)N)cc2)C(=O)N2CCCCC2)c(C)c1C.Cl [Compound 49, 2-N-(4-Methoxy-2,3,6-trimethyl-benzenesulfonyl)-4-N-(β-L-fucopyranosyl)-L-aspaginyl-4-amidino-D-phenylalanine-piperidide hydrochloride] here?
The Ki was 0.1 nM.

And the Ki [1]?
The Ki was 531 nM.

And the “Specificity Try/Thr” value [1]?
Its value is 5310.

And the “LD50 (rat)” value (CD rats)?
Its value is 52 mg/kg.

What does the source list for COc1cc(C)c(S(=O)(=O)N[C@@H](CC(=O)N[C@@H]2O[C@H](CO)[C@H](O)[C@H](O)[C@H]2NC(C)=O)C(=O)N[C@H](Cc2ccc(C(=N)N)cc2)C(=O)N2CCCCC2)c(C)c1C.Cl [Compound 50, 2-N-(4-Methoxy-2,3,6-trimethyl-benzenesulfonyl)-4-N-(2-acetamido-2-deoxy-β-D-galactopyranosyl)-L-asparaginyl-4-amidino-D-phenylalanine-piperididehydrochloride]?
Ki (human thrombin): 2.1 nM; Ki [1]: 608 nM; Specificity Try/Thr [1]: 289; LD50 (rat) (CD rats): 64 mg/kg

For N=C(N)c1ccc(CC(NC(=O)CNS(=O)(=O)c2ccc3ccccc3c2)C(=O)N2CCCCC2)cc1 (centres unmarked) [NAPAP, 2-N-(2-naphthalenesulfonylglycyl)-4-amidino-phenylalaninc piperidide], which specificity for thrombin (thrombin) is on record?
The specificity for thrombin was “too low”.
